Reference: patent publication US11279702B2, “AMPK activators” (Kallyope, Inc., priority 2020, dated 2022)

How the values were obtained:
[1] = biological target: T1, Recombinant AMPK α1/β1/γ1 complex (Homo sapiens (Human), UniProt Q13131+Q9Y478); experiment: In vitro pAMPK1 kinase activation assay (ADP-Glo, SAMS peptide); type: biochemical; details: for EC50: AMPK α1/β1/γ1 pre-activated with CAMKK2, 12-point curve; for activation at 10 µM: relative to reference compound MK-8722
Protocol: Compound effect on AMPK enzyme activation was determined in a cell-free format with a 12-point concentration curve. The ADP-Glo detection system was used to determine phosphorylation of a SAMS peptide substrate. Recombinant AMPK α1/β1/γ1 complex was pre-activated by phosphorylation with CAMKK2 followed by incubated with compound for 15 minutes prior to the SAMS phosphorylation reaction. Activity curves and EC50 values were fitted by interpolation to an ATP:ADP standard curve as indicated by the ADP-Glo manufacturer using Prism software. Activity at 10 μM is reported relative to a reference compound, MK-8722 (Science 2017, 357(6350):507-511).

MDCK cells = experiment: Effects on tight junction (TJ) architecture, ZO-1 staining; type: cell-based; details: 10 μM, low calcium medium (LCM)
Protocol: MDCK cells were grown to confluence on Transwell inserts in standard growth media. The inserts were then washed and incubated in low calcium medium (LCM) with vehicle or compound (10 μM) and fixed with paraformaldehyde. Fixed cells were stained for tight junction (TJ) component proteins using commercially available antibodies and visualized on a confocal microscope (Model DM6, Leica Microsystems). As shown by zona occludens-1 (ZO-1) staining, confluent epithelial cell monolayers in standard growth media display well-organized TJs that allow the cells to form a tight seal with their neighbors, while LCM induces autonomous internalization of TJ proteins into the cytoplasm and therefore compromises the barrier function of the epithelial monolayer.

[2] = biological target: T1, Recombinant AMPK α1/β1/γ1 complex; experiment: In vitro pAMPK1 kinase activation assay (ADP-Glo, SAMS peptide); type: biochemical; details: at 10 μM
[3] = tested on: Mouse In Vivo Acute Dextran Sulfate Sodium (DSS) Colitis Model; experiment: Intestinal barrier function in acute DSS colitis model (FITC-dextran); set-up: species or system C57Bl/6 mice
Protocol: Vehicle or a dose of Compound A1 or Compound 1 was administered once daily by oral gavage to C57Bl/6 mice. After 3 days of pre-dosing, dextran sulfate sodium (DSS) was simultaneously administered at 2.5-3% in drinking water, and appropriate water-only controls were included.
After 6 days of DSS administration, animals treated with Compound A1 were switched back to their regular water source and a 24-hour wash-out of both DSS and compound was provided. The animals were fasted on the morning of take-down and administered a single oral bolus dose of FITC-dextran. The animals were sacrificed by cardiac puncture 4 hours after administration and plasma was collected. The concentration of FITC-dextran present in plasma was determined by measuring fluorescence intensity on a standard plate reader, and fitting values back to a standard curve.
After 7 days of DSS administration, animals treated with Compound 1 were switched back to their regular water source and the animals were administered a single oral bolus dose of FITC-dextran (FD) four hours prior to necropsy. The animals were sacrificed by cardiac puncture and serum was collected. The concentration of FITC-dextran present in serum was determined by measuring fluorescence intensity on a standard plate reader, and fitting values back to a standard curve.

[4] = tested on: Mouse In Vivo Chemotherapy-Induced Intestinal Injury Model; experiment: Diarrhea in chemotherapy (5FU)-induced intestinal injury model; set-up: species or system BALB/c mice
Protocol: Compounds were formulated in vehicle (0.25% methyl cellulose, 5% Tween 80, 0.02% sodium dodecyl sulfate (SDS) in Hanks' Buffered Salt Solution with Ca2+ and Mg2+). On day 1, either saline or a 400 mg/kg dose of 5-fluorouracil (5FU) in saline was administered by intraperitoneal injection to BALB/c mice. Starting on day 2, vehicle or compound was administered once or twice a day by oral gavage. In some instances, compound was also administered once or twice a day by oral gavage from day −3 to day −1 (pre-5FU). From days 5 to 6 post-5FU, the animals were scored for diarrhea severity once a day. The diarrhea was scored 0-3 as follows: 0—normal consistency (black and solid), 1—soft (black and a bit lighter/yellow), 2—loosely shaped stool (yellowish and somewhat watery), 3—extreme diarrhea (very watery). Day 5 and day 6 diarrhea scores following administration of certain compounds were lower than vehicle control mice. […] In addition, Compound 1 was efficacious at doses as low as 3 mg/kg BID (6 mg/kg total daily dose).

BCRP = BCRP (Homo sapiens (Human), UniProt Q9UNQ0); experiment: in vitro; type: in vitro ADME; details: for efflux transporter substrate assessment: Caco-2; for Efflux Ratio / Mean Papp (10^−6 cm/s) B to A / Mean Recovery (%) A to B / Mean Recovery (%) B to A / Papp B→A at 2 h, 2 μM / recovery at 2 h, 2 μM: human; for Efflux Ratio / Mean Papp (10^−6 cm/s) B to A / Mean Recovery (%) A to B / Mean Recovery (%) B to A: Caco-2, 2 h, 2 μM, pH 7.4; for Papp B→A at 2 h, 2 μM: Caco-2, pH 7.4, Mean Papp (10^−6 cm/s) B to A
Protocol: Caco-2 cells purchased from ATCC were seeded onto […] (PET) in 96-well BD Insert plates at 1×10^5 cells/cm^2, and refreshed medium every 4-5 days until to the 21st to 28th day for confluent cell monolayer formation. The transport buffer in the study was HBSS with 10 mM HEPES at pH 7.40±0.05. Compounds were tested at 2 μM in the presence or absence of 30 μM novobiocin bi-directionally in duplicate. E3S was tested at 5 μM in the presence or absence of 30 μM novobiocin bi-directionally in duplicate, while nadolol and metoprolol were tested at 2 μM in the absence of novobiocin in A to B direction in duplicate. Final DMSO concentration was adjusted to less than 1%. The plate was incubated for 2 hours in CO2 incubator at 37+1° C., with 5% CO2 at saturated humidity without shaking. All samples were mixed with acetonitrile containing internal standard and were centrifuged at 4000 rpm for 10 min. Subsequently, 100 μL supernatant solution was diluted with 100 μL distilled water for LC/MS/MS analysis. Concentrations of test and control compounds in starting solution, donor solution, and receiver solution were quantified by LC/MS/MS, using peak area ratio of analyte/internal standard.

[5] = Caco-2, pH 7.4, Mean Recovery (%) A to B
[6] = Caco-2, pH 7.4, Mean Recovery (%) B to A

T1 sequence (Q13131 whole entry): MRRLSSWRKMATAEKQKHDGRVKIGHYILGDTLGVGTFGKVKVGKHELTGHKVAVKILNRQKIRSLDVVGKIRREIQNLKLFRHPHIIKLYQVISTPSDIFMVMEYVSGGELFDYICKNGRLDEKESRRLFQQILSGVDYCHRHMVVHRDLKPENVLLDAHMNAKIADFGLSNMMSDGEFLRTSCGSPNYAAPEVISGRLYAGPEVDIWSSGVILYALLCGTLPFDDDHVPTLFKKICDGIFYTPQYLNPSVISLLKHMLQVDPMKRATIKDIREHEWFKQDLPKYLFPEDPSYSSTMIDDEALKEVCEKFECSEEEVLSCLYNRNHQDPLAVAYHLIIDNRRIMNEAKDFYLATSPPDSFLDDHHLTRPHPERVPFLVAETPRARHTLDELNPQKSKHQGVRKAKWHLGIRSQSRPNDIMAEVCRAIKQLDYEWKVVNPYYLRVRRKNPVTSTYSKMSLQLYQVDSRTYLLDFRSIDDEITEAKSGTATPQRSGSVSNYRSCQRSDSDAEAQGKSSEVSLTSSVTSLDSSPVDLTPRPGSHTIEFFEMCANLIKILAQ
T1 sequence (Q9Y478 whole entry): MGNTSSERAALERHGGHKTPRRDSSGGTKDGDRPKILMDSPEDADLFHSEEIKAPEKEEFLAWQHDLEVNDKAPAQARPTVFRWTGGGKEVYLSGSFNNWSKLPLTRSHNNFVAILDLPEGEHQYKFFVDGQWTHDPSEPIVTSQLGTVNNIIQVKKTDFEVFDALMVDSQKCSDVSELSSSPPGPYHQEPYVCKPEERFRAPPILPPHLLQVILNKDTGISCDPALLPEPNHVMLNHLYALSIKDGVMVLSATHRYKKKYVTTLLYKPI
T1 sequence (P54619 whole entry partner): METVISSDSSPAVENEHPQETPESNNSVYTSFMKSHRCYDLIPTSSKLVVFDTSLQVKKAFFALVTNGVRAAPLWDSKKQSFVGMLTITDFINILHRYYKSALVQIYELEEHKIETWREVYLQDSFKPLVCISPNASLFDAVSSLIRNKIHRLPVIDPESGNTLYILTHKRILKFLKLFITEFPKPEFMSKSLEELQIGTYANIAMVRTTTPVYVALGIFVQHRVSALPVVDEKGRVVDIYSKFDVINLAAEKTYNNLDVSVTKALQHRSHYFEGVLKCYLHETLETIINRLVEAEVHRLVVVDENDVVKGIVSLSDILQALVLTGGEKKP
Chain of BCRP (Q9UNQ0 whole entry): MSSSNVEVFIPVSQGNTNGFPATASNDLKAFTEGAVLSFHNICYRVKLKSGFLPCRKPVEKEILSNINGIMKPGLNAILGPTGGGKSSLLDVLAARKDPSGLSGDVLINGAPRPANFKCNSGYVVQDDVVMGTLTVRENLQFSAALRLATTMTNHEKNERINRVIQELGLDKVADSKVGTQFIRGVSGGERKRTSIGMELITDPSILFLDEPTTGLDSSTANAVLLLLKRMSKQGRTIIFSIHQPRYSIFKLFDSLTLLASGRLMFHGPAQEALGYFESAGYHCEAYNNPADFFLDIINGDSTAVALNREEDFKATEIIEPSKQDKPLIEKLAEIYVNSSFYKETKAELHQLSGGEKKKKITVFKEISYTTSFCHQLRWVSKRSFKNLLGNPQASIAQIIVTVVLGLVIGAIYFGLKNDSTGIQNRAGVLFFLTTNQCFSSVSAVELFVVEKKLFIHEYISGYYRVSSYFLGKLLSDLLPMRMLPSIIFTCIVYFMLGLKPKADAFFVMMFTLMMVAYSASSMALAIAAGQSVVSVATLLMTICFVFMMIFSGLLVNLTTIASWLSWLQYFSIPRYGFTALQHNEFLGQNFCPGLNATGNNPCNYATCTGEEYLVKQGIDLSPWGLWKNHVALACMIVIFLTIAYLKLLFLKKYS

O=C(O)CSc1nc2nc(-c3ccc(-c4ccccc4O)cc3)c(Cl)cc2[nH]1 [Compound 1, 2-((6-chloro-5-(2′-hydroxy-[1,1′-biphenyl]-4-yl)-1H-imidazo[4,5-b]pyridin-2-yl)thio)acetic Acid]
potency relative to Compound A1 [1]: > 100 fold
EC50 [1]: 1.4 nM
activation at 10 µM [1]: 35%
TJ architecture by zona occludens-1 (ZO-1) staining (MDCK cells): prevented the loss of TJ architecture
activation compared with AMP [2]: activation greater than that displayed by AMP
Change in Fluorescence Intensity vs. Vehicle ([3]; 3 mg/kg PO once daily, serum, 7 days DSS): −35%
Change in Fluorescence Intensity vs. Vehicle ([3]; 10 mg/kg PO once daily, serum, 7 days DSS): −69%
Change in Fluorescence Intensity vs. Vehicle ([3]; 30 mg/kg PO once daily, serum, 7 days DSS): −80%
Change in Fluorescence Intensity vs. Vehicle ([3]; 100 mg/kg PO once daily, serum, 7 days DSS): −96%
Diarrhea Score % Change vs. Vehicle ([4]; 3 mg/kg BID, Day 5): −17%
Diarrhea Score ([4]; 3 mg/kg BID, Day 5, score 0-3): 0.50
Diarrhea Score % Change vs. Vehicle ([4]; 3 mg/kg BID, Day 6): −56%
Diarrhea Score ([4]; 3 mg/kg BID, Day 6, score 0-3): 0.75
Diarrhea Score % Change vs. Vehicle ([4]; 10 mg/kg BID, Day 5): −28%
Diarrhea Score ([4]; 10 mg/kg BID, Day 5, score 0-3): 0.43
Diarrhea Score % Change vs. Vehicle ([4]; 10 mg/kg BID, Day 6): −71%
Diarrhea Score ([4]; 10 mg/kg BID, Day 6, score 0-3): 0.50
Diarrhea Score % Change vs. Vehicle ([4]; 30 mg/kg BID, Day 5): −100%
Diarrhea Score ([4]; 30 mg/kg BID, Day 5, score 0-3): 0
Diarrhea Score % Change vs. Vehicle ([4]; 30 mg/kg BID, Day 6): −66%
Diarrhea Score ([4]; 30 mg/kg BID, Day 6, score 0-3): 0.57
Diarrhea Score % Change vs. Vehicle ([4]; 30 mg/kg QD, Day 5): −30%
Diarrhea Score ([4]; 30 mg/kg QD, Day 5, score 0-3): 0.63
Diarrhea Score % Change vs. Vehicle ([4]; 30 mg/kg QD, Day 6): −58%
Diarrhea Score ([4]; 30 mg/kg QD, Day 6, score 0-3): 0.75
Diarrhea Score % Change vs. Vehicle ([4]; 100 mg/kg BID, Day 5): −63%
Diarrhea Score ([4]; 100 mg/kg BID, Day 5, score 0-3): 0.38
Diarrhea Score % Change vs. Vehicle ([4]; 100 mg/kg BID, Day 6): −79%
Diarrhea Score ([4]; 100 mg/kg BID, Day 6, score 0-3): 0.38
efflux transporter substrate assessment (BCRP): likely substrates of intestinal efflux transporters
Efflux Ratio (BCRP): 44.89
Mean Papp (10^−6 cm/s) B to A (BCRP): 6.98 10^−6 cm/s
Mean Recovery (%) A to B (BCRP): 69.40%
Mean Recovery (%) B to A (BCRP): 82.75%
Papp B→A at 2 h, 2 μM (BCRP): 12.7 ×10⁻⁶ cm/s
recovery at 2 h, 2 μM (BCRP; [5]): < 68.8%
recovery at 2 h, 2 μM (BCRP; [6]): 79.5%

O=C(O)CSc1nc2cc(-c3ccc(-c4ccccc4O)cc3)c(Cl)cc2[nH]1 [Compound A1]
EC50 [1]: 200 nM
activation at 10 µM [1]: 48%
TJ architecture by zona occludens-1 (ZO-1) staining (MDCK cells): prevented the loss of TJ architecture
activation compared with AMP [2]: activation greater than that displayed by AMP
Change in Fluorescence Intensity vs. Vehicle ([3]; 30 mg/kg PO once daily, plasma, 6 days DSS then 24-hour wash-out): −60%
Diarrhea Score % Change vs. Vehicle ([4]; 30 mg/kg QD, Day 5): +38%
Diarrhea Score ([4]; 30 mg/kg QD, Day 5, score 0-3): 1.38
Diarrhea Score % Change vs. Vehicle ([4]; 30 mg/kg QD, Day 6): −29%
Diarrhea Score ([4]; 30 mg/kg QD, Day 6, score 0-3): 1.25
efflux transporter substrate assessment (BCRP): likely substrates of intestinal efflux transporters
Efflux Ratio (BCRP): 55.54
Mean Papp (10^−6 cm/s) B to A (BCRP): 9.16 10^−6 cm/s
Mean Recovery (%) A to B (BCRP): 61.16%
Mean Recovery (%) B to A (BCRP): 78.94%
Papp B→A at 2 h, 2 μM (BCRP): 17.1 ×10⁻⁶ cm/s
recovery at 2 h, 2 μM (BCRP; [5]): < 65.6%
recovery at 2 h, 2 μM (BCRP; [6]): 77.4%
